Source: ChEMBL document CHEMBL5321215, “Discovery of quinazolin-4(3H)-one derivatives as novel AChE inhibitors with anti-inflammatory activities” (Eur J Med Chem, 2023)
Calls of active or inactive are those of the source. No cut-off for these calls is given here.

Assays:
[1] = molecular target: Cholinesterase (Equus caballus) (UniProt P81908); assay: Inhibition of equine serum BChE at 20 uM by Ellman's method relative to control; type: cell-free
[2] = molecular target: Acetylcholinesterase (Electrophorus electricus) (UniProt O42275); assay: Inhibition of electric eel AChE using acetylthiocholine iodide as substrate at 20 uM incubated for 20 mins by Ellman's method relative to control
Chain of Acetylcholinesterase (Electrophorus electricus) (O42275 24-633 limits assumed): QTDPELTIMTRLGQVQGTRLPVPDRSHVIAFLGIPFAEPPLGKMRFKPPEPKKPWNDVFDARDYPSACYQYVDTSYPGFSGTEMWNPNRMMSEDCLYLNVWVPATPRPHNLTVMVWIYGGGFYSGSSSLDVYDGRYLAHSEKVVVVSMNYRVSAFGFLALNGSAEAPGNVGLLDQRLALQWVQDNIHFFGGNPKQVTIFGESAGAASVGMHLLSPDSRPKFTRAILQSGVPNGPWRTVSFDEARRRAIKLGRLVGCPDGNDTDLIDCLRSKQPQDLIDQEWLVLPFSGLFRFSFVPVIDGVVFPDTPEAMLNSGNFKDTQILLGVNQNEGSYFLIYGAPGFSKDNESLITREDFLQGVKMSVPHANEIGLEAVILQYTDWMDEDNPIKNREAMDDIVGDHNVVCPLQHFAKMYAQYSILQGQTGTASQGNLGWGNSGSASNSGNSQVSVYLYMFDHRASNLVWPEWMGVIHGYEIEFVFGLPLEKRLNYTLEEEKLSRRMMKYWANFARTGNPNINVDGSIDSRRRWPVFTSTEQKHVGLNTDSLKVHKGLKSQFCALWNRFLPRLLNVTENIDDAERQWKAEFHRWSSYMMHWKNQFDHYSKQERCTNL

[3] = molecular target: Acetylcholinesterase (Electrophorus electricus, UniProt O42275); assay: Inhibition of electric eel AChE using acetylthiocholine iodide as substrate incubated for 20 mins by Ellman's method
Chain of Acetylcholinesterase (Electrophorus electricus, UniProt O42275) (O42275 whole entry): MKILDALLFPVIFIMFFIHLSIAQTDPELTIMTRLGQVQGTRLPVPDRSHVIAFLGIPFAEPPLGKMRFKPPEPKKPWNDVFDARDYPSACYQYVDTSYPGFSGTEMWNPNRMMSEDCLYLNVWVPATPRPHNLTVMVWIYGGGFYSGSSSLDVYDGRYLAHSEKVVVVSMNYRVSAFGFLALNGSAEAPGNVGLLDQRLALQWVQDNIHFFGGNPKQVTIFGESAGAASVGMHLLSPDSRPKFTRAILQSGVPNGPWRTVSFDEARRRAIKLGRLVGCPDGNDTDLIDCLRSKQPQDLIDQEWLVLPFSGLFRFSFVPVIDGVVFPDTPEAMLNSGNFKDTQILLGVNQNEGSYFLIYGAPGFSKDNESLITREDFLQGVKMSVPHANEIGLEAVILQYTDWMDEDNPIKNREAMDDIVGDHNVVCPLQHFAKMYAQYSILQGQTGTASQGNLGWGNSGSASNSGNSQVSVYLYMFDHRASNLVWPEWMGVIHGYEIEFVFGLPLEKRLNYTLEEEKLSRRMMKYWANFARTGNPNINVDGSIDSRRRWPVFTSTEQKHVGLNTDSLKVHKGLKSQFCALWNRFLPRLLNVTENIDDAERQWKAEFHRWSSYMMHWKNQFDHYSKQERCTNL

[4] = test system: RAW264.7; assay: Antiinflammatory activity against mouse RAW264.7 cells assessed as inhibition of LPS-induced nitric oxide production at 20 uM preincubated for 24 hrs followed by LPS stimulation by Griess reagent-based colorimetric assay relative to control; type: functional; parameters: scale not given: the % may be the effect or the level left
[5] = molecular target: T1, Cholinesterase (Equus caballus, UniProt P81908); assay: Inhibition of equine serum BChE by Ellman's method; type: cell-free
T1 sequence (P81908 whole entry): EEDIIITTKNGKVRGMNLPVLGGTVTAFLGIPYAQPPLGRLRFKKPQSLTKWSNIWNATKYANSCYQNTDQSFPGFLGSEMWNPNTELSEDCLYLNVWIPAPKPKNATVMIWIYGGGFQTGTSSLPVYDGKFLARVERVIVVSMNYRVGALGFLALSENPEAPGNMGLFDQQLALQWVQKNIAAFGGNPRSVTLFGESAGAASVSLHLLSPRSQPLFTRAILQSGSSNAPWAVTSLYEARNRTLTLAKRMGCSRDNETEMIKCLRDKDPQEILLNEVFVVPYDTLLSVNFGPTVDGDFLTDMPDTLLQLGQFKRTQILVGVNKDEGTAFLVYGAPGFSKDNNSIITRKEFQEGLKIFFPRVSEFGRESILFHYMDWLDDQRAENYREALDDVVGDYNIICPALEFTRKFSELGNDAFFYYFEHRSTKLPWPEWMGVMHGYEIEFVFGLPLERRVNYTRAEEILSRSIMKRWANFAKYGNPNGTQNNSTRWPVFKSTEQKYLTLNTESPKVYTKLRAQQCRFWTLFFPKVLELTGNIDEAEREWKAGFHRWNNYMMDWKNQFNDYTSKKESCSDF

[6] = test system: BV-2; assay: Inhibition of NF-kappaB pathway in LPS-induced mouse BV-2 cells assessed as reduction in p65 protein expression level at 10 uM incubated for 24 hrs by Western blot analysis; type: cell-based
[7] = test system: BV-2; assay: Antiinflammatory activity against mouse BV-2 cells assessed as reduction in LPS-induced TNF-alpha mRNA expression measured after 24 hrs by qRT-PCR analysis; type: functional, cell-based; details: dose 1.25-10 µM
[8] = test system: RAW264.7; assay: Antiinflammatory activity against mouse RAW264.7 cells assessed as inhibition of LPS-induced nitric oxide production preincubated for 24 hrs followed by LPS stimulation by Griess reagent-based colorimetric assay; type: functional, cell-based
[9] = test system: BV-2; assay: Antiinflammatory activity against mouse BV-2 cells assessed as reduction in LPS-induced IL-1beta mRNA expression measured after 24 hrs by qRT-PCR analysis; type: functional, cell-based; details: dose 1.25-10 µM
[10] = molecular target: Acetylcholinesterase (Electrophorus electricus) (UniProt O42275); assay: Non competitive inhibition of Electric eel AChE using acetylthiocholine iodide as substrate assessed as decrease in Vmax with constant Km by Lineweaver-Burk plot analysis
[11] = test system: BV-2; assay: Inhibition of NF-kappaB pathway in LPS-induced mouse BV-2 cells assessed as reduction in phosphorylated p65 protein expression level at 10 uM incubated for 24 hrs by Western blot analysis; type: cell-based
[12] = test system: BV-2; assay: Effect on JNK protein level in LPS-induced mouse BV-2 cells at 10 uM incubated for 24 hrs by Western blot analysis; type: functional, cell-based
[13] = test system: BV-2; assay: Antiinflammatory activity against mouse BV-2 cells assessed as reduction in LPS-induced CCL2 mRNA expression measured after 24 hrs by qRT-PCR analysis; type: functional, cell-based; details: dose 1.25-10 µM
[14] = test system: BV-2; assay: Cytotoxicity against mouse BV-2 cells assessed as reduction in cell viability at 10 uM incubated for 24 hrs by CCK-8 assay; type: toxicity, cell-based; details: bv-2, 24 h
[15] = test system: BV-2; assay: Inhibition of MAPK/JNK signalling pathway in LPS-induced mouse BV-2 cells assessed as reduction in JNK phosphorylation level at 10 uM incubated for 24 hrs by Western blot analysis; type: cell-based
[16] = test system: BV-2; assay: Antiinflammatory activity against mouse BV-2 cells assessed as reduction in LPS-induced IL-6 mRNA expression level measured after 24 hrs by qRT-PCR analysis; type: functional, cell-based; details: dose 1.25-10 µM
[17] = molecular target: NACHT, LRR and PYD domains-containing protein 3 (Mus musculus) (UniProt Q8R4B8); assay: Inhibition of NLRP3 inflammasome in LPS-induced mouse BV-2 cells assessed as decrease in NLRP3 protein expression at 10 uM incubated for 24 hrs by Western blot analysis; type: cell-based
Chain of NACHT, LRR and PYD domains-containing protein 3 (Mus musculus) (Q8R4B8 whole entry, the tested form may be a part): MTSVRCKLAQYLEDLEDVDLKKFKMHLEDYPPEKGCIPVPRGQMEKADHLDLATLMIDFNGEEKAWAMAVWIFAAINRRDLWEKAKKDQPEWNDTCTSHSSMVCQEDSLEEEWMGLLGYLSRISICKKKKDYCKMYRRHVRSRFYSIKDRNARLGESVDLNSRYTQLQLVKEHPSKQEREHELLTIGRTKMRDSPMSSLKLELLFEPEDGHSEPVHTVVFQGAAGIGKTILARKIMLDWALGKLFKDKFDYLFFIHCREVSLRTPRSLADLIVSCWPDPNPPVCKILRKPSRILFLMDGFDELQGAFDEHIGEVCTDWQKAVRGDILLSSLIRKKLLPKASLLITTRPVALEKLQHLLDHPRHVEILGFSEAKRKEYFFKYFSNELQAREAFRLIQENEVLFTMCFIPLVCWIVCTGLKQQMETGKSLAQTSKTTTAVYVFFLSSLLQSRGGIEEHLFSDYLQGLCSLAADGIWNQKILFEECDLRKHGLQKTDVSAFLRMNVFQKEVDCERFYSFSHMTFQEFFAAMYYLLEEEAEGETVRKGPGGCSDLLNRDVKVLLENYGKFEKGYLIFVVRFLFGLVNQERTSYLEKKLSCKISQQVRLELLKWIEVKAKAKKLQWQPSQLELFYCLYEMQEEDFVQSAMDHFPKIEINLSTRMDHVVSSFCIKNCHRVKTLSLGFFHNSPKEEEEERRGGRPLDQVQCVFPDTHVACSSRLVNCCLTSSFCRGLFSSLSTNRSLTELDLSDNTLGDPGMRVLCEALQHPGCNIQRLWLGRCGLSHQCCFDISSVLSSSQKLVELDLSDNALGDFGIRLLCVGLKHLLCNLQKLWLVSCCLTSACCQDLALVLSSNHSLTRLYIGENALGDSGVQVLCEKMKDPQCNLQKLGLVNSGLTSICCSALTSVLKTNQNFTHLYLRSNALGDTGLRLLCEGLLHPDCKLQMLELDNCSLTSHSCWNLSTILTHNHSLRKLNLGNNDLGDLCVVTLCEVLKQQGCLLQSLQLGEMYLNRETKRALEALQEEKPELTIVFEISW

[18] = molecular target: Cholinesterase (Homo sapiens, UniProt P06276); assay: Inhibition of BChE (unknown origin)
Chain of Cholinesterase (Homo sapiens, UniProt P06276) (P06276 whole entry): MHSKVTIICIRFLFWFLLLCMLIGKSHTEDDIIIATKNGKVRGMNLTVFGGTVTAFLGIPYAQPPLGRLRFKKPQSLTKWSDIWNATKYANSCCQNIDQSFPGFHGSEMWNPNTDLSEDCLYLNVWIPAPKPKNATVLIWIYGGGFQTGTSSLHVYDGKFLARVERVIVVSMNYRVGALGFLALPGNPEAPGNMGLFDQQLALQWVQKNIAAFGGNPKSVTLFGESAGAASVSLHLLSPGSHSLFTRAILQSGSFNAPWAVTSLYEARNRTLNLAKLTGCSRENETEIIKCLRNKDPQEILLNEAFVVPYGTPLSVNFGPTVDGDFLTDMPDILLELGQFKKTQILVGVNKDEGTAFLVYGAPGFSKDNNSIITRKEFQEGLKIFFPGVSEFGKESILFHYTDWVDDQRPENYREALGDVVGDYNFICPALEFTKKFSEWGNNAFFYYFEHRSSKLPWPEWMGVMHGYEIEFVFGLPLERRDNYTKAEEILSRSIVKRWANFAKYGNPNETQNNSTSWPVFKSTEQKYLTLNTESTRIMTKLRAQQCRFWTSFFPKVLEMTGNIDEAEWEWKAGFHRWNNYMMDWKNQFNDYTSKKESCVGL

[19] = molecular target: Acetylcholinesterase (Homo sapiens, UniProt P22303); assay: Inhibition of AChE (unknown origin)
Chain of Acetylcholinesterase (Homo sapiens, UniProt P22303) (P22303 whole entry): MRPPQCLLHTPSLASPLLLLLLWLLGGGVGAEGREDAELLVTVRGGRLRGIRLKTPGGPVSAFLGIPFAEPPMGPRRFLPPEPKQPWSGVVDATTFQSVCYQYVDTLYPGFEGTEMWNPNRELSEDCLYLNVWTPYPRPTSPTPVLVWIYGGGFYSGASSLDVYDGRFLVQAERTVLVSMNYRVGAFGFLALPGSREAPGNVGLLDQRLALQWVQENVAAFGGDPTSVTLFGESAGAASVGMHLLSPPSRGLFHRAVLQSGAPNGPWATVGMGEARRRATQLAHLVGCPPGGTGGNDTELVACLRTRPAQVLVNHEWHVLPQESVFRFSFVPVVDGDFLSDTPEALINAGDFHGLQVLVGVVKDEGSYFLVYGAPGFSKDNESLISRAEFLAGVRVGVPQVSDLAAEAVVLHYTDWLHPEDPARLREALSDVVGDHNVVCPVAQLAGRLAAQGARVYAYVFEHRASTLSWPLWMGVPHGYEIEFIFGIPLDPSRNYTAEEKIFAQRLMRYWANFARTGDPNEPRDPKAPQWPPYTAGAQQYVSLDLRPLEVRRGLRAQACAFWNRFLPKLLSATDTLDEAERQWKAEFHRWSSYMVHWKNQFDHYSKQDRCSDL

[20] = molecular target: T1, Cholinesterase; assay: Mixed type inhibition of equine serum BChE assessed as inhibition constant by Lineweaver-Burk plot analysis; type: cell-free
[21] = molecular target: Cholinesterase (Equus caballus) (UniProt P81908); assay: Mixed type inhibition of equine serum BChE assessed as increase in slope and Y-intercept at increasing concentration by Lineweaver-Burk plot analysis; type: cell-free
[22] = molecular target: Cholinesterase (Equus caballus) (UniProt P81908); assay: Mixed type inhibition of equine serum BChE assessed as Kis by Lineweaver-Burk plot analysis; type: cell-free
[23] = molecular target: Cholinesterase (Equus caballus) (UniProt P81908); assay: Non competitive inhibition of equine serum BChE assessed as decrease in Vmax with constant Km by Lineweaver-Burk plot analysis; type: cell-free

Chain of Cholinesterase (Equus caballus) (P81908 whole entry): as the sequence (P81908 whole entry) above

Structure (SMILES): COc1cc(OC)c2c(=O)[nH]c(C(=O)c3cc(OC)c(OC)c(OC)c3)nc2c1
- inhibition [1]: inactive
- inhibition [2]: 23.1%

Structure (SMILES): CN1CCN(c2ccc(-c3nc4ccc(N)cc4c(=O)[nH]3)cc2)CC1
- inhibition [1]: 3.32%
- inhibition [2]: 58.6%

Structure (SMILES): COc1cc(-c2nc3ccc(NC(=O)c4ccc(F)cc4)cc3c(=O)[nH]2)cc(OC)c1OC
- inhibition [1]: 12.7%
- inhibition [2]: 6.3%

Structure (SMILES): COc1cc(-c2nc3ccc(NC(=O)CCN4CCC(O)CC4)cc3c(=O)[nH]2)cc(OC)c1OC
- inhibition [1]: 15.8%
- inhibition [2]: 20.2%

Structure (SMILES): COc1cc(-c2nc3ccc(NC(=O)CCl)cc3c(=O)[nH]2)cc(OC)c1OC
- inhibition [1]: 9.51%
- inhibition [2]: 32.5%

Structure (SMILES): COc1cc(OC)c2c(=O)[nH]c(-c3ccc(N4CCN(CCO)CC4)cc3)nc2c1
- inhibition [1]: 3.32%
- inhibition [2]: 62.4%

Structure (SMILES): CN1CCN(c2ccc(-c3nc4ccccc4c(=O)[nH]3)cc2)CC1
- IC50 [3]: 30.4 µM
- Activity [4]: 45.6%
- IC50 [5]: > 20 µM
- inhibition [1]: 24.1%
- inhibition [2]: 68.1%

Structure (SMILES): COc1cc(-c2nc3ccc(NCc4ccc(N5CCN(C)CC5)cc4)cc3c(=O)[nH]2)cc(OC)c1OC
- inhibition [1]: inactive
- inhibition [2]: 23.6%

Structure (SMILES): COc1cc(OC)c2c(=O)[nH]c(-c3c[nH]c4ccccc34)nc2c1
- inhibition [1]: 8.91%
- inhibition [2]: 31.9%

Structure (SMILES): COc1cc(OC)c2c(=O)[nH]c(-c3ccc(N4CCOCC4)cc3)nc2c1
- inhibition [1]: 16.5%
- inhibition [2]: 47.3%

Structure (SMILES): COc1cc(OC)c2c(=O)[nH]c(-c3ccc(N4CCN(C(=O)OC(C)(C)C)CC4)cc3)nc2c1
- inhibition [1]: inactive
- inhibition [2]: 37.4%

Structure (SMILES): COc1cc(OC)c2c(=O)[nH]c(-c3ccc(N4CCN(C)CC4)cc3)nc2c1
- IC50 [3]: 5.04 µM
- inhibition [6]: Active
- Activity [7]: Dose-Dependent Effect
- Activity [4]: 116.4%
- IC50 [8]: 3.29 µM
- Activity [9]: Dose-Dependent Effect
- inhibition [10]: Active
- inhibition [11]: Active
- Activity [12]: Active
- IC50 [5]: > 20 µM
- Activity [13]: Dose-Dependent Effect
- inhibition [1]: 38.7%
- Activity [14]: Non-Toxic
- inhibition [2]: 91.8%
- inhibition [15]: Active
- Activity [16]: Dose-Dependent Effect
- inhibition [17]: Active

Structure (SMILES): C[C@@H]1C[C@H]2[C@@H]3CCC4=CC(=O)C=C[C@]4(C)[C@@]3(F)[C@@H](O)C[C@]2(C)[C@@]1(O)C(=O)CO [DEXAMETHASONE]
- Activity [4]: 60.3%
- IC50 [8]: 11.5 µM

Structure (SMILES): COc1cc(OC)c2c(=O)[nH]c(C(=O)c3ccc(O)cc3)nc2c1
- inhibition [1]: inactive
- inhibition [2]: 7.74%

Structure (SMILES): COc1cc(-c2nc3ccc(NC(=O)CN4CCCCC4)cc3c(=O)[nH]2)cc(OC)c1OC
- inhibition [1]: inactive
- inhibition [2]: 24.6%

Structure (SMILES): COc1cc(OC)c2c(=O)[nH]c(-c3ccc(-c4ccncc4)cc3)nc2c1
- inhibition [1]: 1.72%
- inhibition [2]: 30.9%

Structure (SMILES): CON(C)C(=O)Oc1ccccc1C(=O)NCCc1c[nH]c2ccccc12
- IC50 [18]: 1.84 µM
- IC50 [19]: 3.24 µM

Structure (SMILES): COc1cc(OC)c2c(=O)[nH]c(C3CCN(Cc4ccccc4)CC3)nc2c1
- IC50 [3]: 7.88 µM
- Activity [4]: 60.5%
- IC50 [8]: 21.3 µM
- IC50 [5]: 36.9 µM
- inhibition [1]: 59.1%
- inhibition [2]: 83.4%

Structure (SMILES): O=c1[nH]c(C2CCN(Cc3ccccc3)CC2)nc2ccc([N+](=O)[O-])cc12
- IC50 [3]: 6.86 µM
- Activity [4]: 40.4%
- IC50 [5]: > 20 µM
- inhibition [1]: inactive
- inhibition [2]: 59.6%

Structure (SMILES): COc1cc(OC)c2c(=O)[nH]c(-c3cccs3)nc2c1
- inhibition [1]: 35.3%
- inhibition [2]: 44.2%

Structure (SMILES): O=c1[nH]c(C2CCN(Cc3ccccc3)CC2)nc2ccc(Br)cc12
- inhibition [1]: 14.6%
- inhibition [2]: 31.7%

Structure (SMILES): COc1cc(-c2nc3ccc(NC(=O)c4ccc(Br)cc4)cc3c(=O)[nH]2)cc(OC)c1OC
- inhibition [1]: 8.3%
- inhibition [2]: 23.5%

Structure (SMILES): COc1cc(-c2nc3ccc(NC(=O)CCN4CCCCC4)cc3c(=O)[nH]2)cc(OC)c1OC
- inhibition [1]: 14.6%
- inhibition [2]: 26.1%

Structure (SMILES): COc1cc(OC)c2c(=O)[nH]c(-c3ccc(N4CCNCC4)cc3)nc2c1
- inhibition [1]: inactive
- inhibition [2]: 44.2%

Structure (SMILES): CN1CCN(c2ccc(-c3nc4ccc(Br)cc4c(=O)[nH]3)cc2)CC1
- IC50 [3]: 16.1 µM
- Activity [4]: 42.7%
- IC50 [5]: > 20 µM
- inhibition [1]: 31.2%
- inhibition [2]: 60.8%

Structure (SMILES): COc1cc(-c2nc3ccc(NC(=O)c4ccc(Cl)cc4)cc3c(=O)[nH]2)cc(OC)c1OC
- inhibition [1]: 14.9%
- inhibition [2]: 10.6%

Structure (SMILES): COc1cc(OC)c2c(=O)[nH]c(-c3nc[nH]c3C)nc2c1
- IC50 [3]: 28.1 µM
- Activity [4]: 61.2%
- IC50 [5]: > 20 µM
- inhibition [1]: 25.9%
- inhibition [2]: 60.8%

Structure (SMILES): COc1cc(OC)c2c(=O)[nH]c(-c3c[nH]cn3)nc2c1
- inhibition [1]: 13.1%
- inhibition [2]: 40.4%

Structure (SMILES): COc1cc(OC)c2c(=O)[nH]c(-c3cc(OC)c(OC)c(OC)c3)nc2c1
- inhibition [1]: 10.9%
- inhibition [2]: 38.7%

Structure (SMILES): O=c1[nH]c(C2CCN(Cc3ccccc3)CC2)nc2ccccc12
- inhibition [1]: 48.6%
- inhibition [2]: 63.3%

Structure (SMILES): CCN(CC)c1ccc(-c2nc3cc(OC)cc(OC)c3c(=O)[nH]2)cc1
- inhibition [1]: inactive
- inhibition [2]: 23.7%

Structure (SMILES): COc1cc(-c2nc3ccccc3c(=O)[nH]2)cc(OC)c1OC
- inhibition [1]: 32.9%
- inhibition [2]: 47.9%

Structure (SMILES): COc1cc(OC)c2c(=O)[nH]c(-c3cn(Cc4ccccc4)cn3)nc2c1
- IC50 [3]: 7.01 µM
- Activity [4]: 33.4%
- Ki [20]: 0.74 µM
- IC50 [5]: 0.83 µM
- inhibition [21]: Active
- inhibition [1]: 95%
- Activity [14]: Toxic
- inhibition [2]: 87.9%
- Kis [22]: 8.58 µM

Structure (SMILES): COc1cc(-c2nc3ccc(NCC4CCN(Cc5ccccc5)CC4)cc3c(=O)[nH]2)cc(OC)c1OC
- IC50 [3]: 4.31 µM
- inhibition [23]: Active
- Activity [4]: 94%
- inhibition [10]: Active
- IC50 [5]: 11.2 µM
- inhibition [1]: 68.6%
- Activity [14]: Toxic
- inhibition [2]: 69%

Structure (SMILES): CN1CCN(c2ccc(-c3nc4ccc([N+](=O)[O-])cc4c(=O)[nH]3)cc2)CC1
- IC50 [3]: 5.49 µM
- Activity [4]: 27.1%
- IC50 [5]: > 100 µM
- inhibition [1]: 63.7%
- inhibition [2]: 69.4%

Structure (SMILES): COc1cc(OC)c2c(=O)[nH]c(-c3ccc(O[C@@H]4O[C@H](CO)[C@@H](O)[C@@H](O)[C@H]4O)cc3)nc2c1
- inhibition [1]: 11.3%
- inhibition [2]: 32.8%

Structure (SMILES): COc1cc(-c2nc3ccc(NC(=O)CCN4CCN(C)CC4)cc3c(=O)[nH]2)cc(OC)c1OC
- inhibition [1]: inactive
- inhibition [2]: 24.7%

Structure (SMILES): COc1cc(-c2nc3ccc(Br)cc3c(=O)[nH]2)cc(OC)c1OC
- inhibition [1]: 12.4%
- inhibition [2]: 33.8%

Structure (SMILES): COc1cc(-c2nc3ccc([N+](=O)[O-])cc3c(=O)[nH]2)cc(OC)c1OC
- inhibition [1]: inactive
- inhibition [2]: 2.52%
